Results on 29 molecules are retold here after PubChem BioAssay AID588822 (The Scripps Research Institute Molecular Screening Center, 2011).

Active and inactive are the calls of the source.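 The calls were made as follows: active = half-maximal inhibitory concentration of 10 µM or lower; inactive = the rest.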

This test deals with Nuclear receptor subfamily 0 group B member 1 (Homo sapiens) (UniProt P51843). Description: DAX1 (NR0B1) repression inhibitors, late-stage follow-up, cell-based, luminescence, HEK293, Gal4-DAX1 reporter, dose response (AID 588822). The note with it: HEK293 Gal4-DAX1 luciferase reporter. A general note: A reporter such as luciferase makes a cellular process visible.
Chain of Nuclear receptor subfamily 0 group B member 1 (Homo sapiens) (P51843 207-470 limits assumed): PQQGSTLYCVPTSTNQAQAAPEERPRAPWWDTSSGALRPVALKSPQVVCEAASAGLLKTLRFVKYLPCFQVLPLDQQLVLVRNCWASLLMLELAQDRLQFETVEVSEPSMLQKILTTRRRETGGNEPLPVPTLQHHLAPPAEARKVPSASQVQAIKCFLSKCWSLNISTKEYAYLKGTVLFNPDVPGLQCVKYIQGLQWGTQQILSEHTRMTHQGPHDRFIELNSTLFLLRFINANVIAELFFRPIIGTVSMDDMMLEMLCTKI

In the case of `COc1ccc(OC)c(C(C)NC(=O)c2ccccc2F)c1` (centres undefined), the IC50 (commonly the concentration that inhibits the measured activity by half) was > 69.5 µM (inactive).
Turning to `COc1ccc(OC)c(C(C)NC(=O)c2ccccc2Cl)c1` (centres undefined), the IC50 is > 69.5 µM (inactive).
On to `Cc1occc1C(=O)Nc1ccc2c(c1)OCO2`, for which the IC50 is > 69.5 µM (inactive).
To `O=C(Nc1ccc2c(c1)OCO2)c1ccc(C2SCC(=O)N2Cc2ccccc2)cc1` (centres undefined) belongs > 69.5 µM (inactive).
To `O=C(Cc1cccs1)Nc1ccc2c(c1)OCO2` belongs > 69.5 µM (inactive).
In the case of `COc1cccc(C(=O)NC(C)c2cc(OC)ccc2OC)c1` (centres undefined), the IC50 is > 69.5 µM (inactive).
With `COc1ccc(OC)c(C(C)NC(=O)c2cccc(C)c2)c1` (centres undefined), the IC50 is > 69.5 µM (inactive).
With `COc1ccc(OC)c(C(C)NC(=O)c2ccc3c(c2)OCCO3)c1` (centres undefined) the figure was > 69.5 µM (inactive); with `Cn1c(=O)n(C)c2cc(C(=O)Nc3ccc4c(c3)OCCO4)ccc21`, > 69.5 µM (inactive); with `COc1ccc(OC)c(C(C)NC(=O)c2ccccc2)c1` (centres undefined), > 69.5 µM (inactive).
With `Cn1c(=O)n(C)c2cc(C(=O)Nc3ccc4c(c3)OCO4)ccc21`, the IC50 is > 69.5 µM (inactive).
Turning to `COc1ccc(OC)c(C(C)NC(=O)c2ccc(C)cc2)c1` (centres undefined), the IC50 was > 69.5 µM (inactive).
Regarding `O=C(Nc1ccc2c(c1)OCO2)c1cccs1`, the IC50 was > 69.5 µM (inactive).
To `CN(C)c1cccc(C(=O)Nc2ccc3c(c2)OCCO3)c1` belongs > 69.5 µM (inactive); to `COc1ccc(OC)c(C(C)NC(=O)c2c(F)cccc2Cl)c1` (centres undefined), > 69.5 µM (inactive); to `CSc1ccccc1C(=O)Nc1ccc2c(c1)OCCO2`, > 69.5 µM (inactive).
To `COc1cccc(C(=O)Nc2ccc3c(c2)OCCO3)c1` belongs > 69.5 µM (inactive).
To `O=C(Nc1ccc2c(c1)OCO2)c1ccc(C2SCC(=O)N2Cc2ccco2)cc1` (centres undefined) belongs > 69.5 µM (inactive).
`COc1ccc(OC)c(C(C)NC(=O)c2ccc(C(C)(C)C)cc2)c1` (centres undefined): the IC50 was > 69.5 µM (inactive).
For `COc1ccc(OC)c(C(C)NC(=O)c2ccc(F)cc2)c1` (centres undefined), the IC50 was > 69.5 µM (inactive).
With `COc1ccc(OC)c(C(C)NC(=O)c2ccccc2C)c1` (centres undefined) the figure was > 69.5 µM (inactive).
To `COc1cccc(C(=O)Nc2ccc3c(c2)OCO3)c1` belongs > 69.5 µM (inactive); to `COc1ccc(OC)c(C(C)NC(=O)c2ccc(Cl)cc2)c1` (centres undefined), > 69.5 µM (inactive).
With `CSc1ccccc1C(=O)Nc1ccc2c(c1)OCO2` the figure was > 69.5 µM (inactive); with `O=C(Nc1ccc2c(c1)OCO2)c1ccc2ccccc2c1`, > 69.5 µM (inactive); with `COc1ccc(OC)c(C(C)NC(=O)c2cccc3ccccc23)c1` (centres undefined), > 69.5 µM (inactive).
For `COc1ccc(OC)c(C(C)NC(=O)c2cccc(F)c2)c1` (centres undefined), the IC50 is > 69.5 µM (inactive).
With `Cc1cc(C(=O)Nc2ccc3c(c2)OCO3)cs1` the figure was > 69.5 µM (inactive); with `O=C(Nc1ccc2c(c1)OCCO2)c1ccc2ccccc2c1`, > 69.5 µM (inactive).
